Test results reported in patent US5750362A, “Methods for identifying substances with a potential herbicidal or growth-regulating action by means of plant transporter proteins, the use of the transporter proteins, and substances with a herbicidal and growth-regulating action” (BASF Aktiengesellschaft, priority 1993, dated 1998).
Read-outs that look alike come from different tables or passages of the source. Values belong to the compound of their own block, whether it stands above or below them.

Columns and labels:
[1] = tested on: sucrose transporter P62 (StSUT1); test: Activation of sucrose transport by preincubation of the yeast cells; assay type: cell-based, Solanum tuberosum; conditions: for Effect on sucrose transport as a function of concentration: preincubation of yeast cells, result in words
Description: The transport of sucrose by the sucrose transporter P62 (StSUT1) from Solanum tuberosum can be increased by previous energizing of the yeast cells by incubation in glucose, stachyose and adenine. The same increase in transport activity is achieved by reducing the pH to pH 3.8 in the measurement. The measurement of transport to determine the activation takes place as described in Example 3 but the cells are incubated before the actual measurement not in 10 mM glucose for 5 min but in solutions of various concentrations of glucose, stachyose and adenine for 5 min. Yeast cells which are not incubated in solutions of these substances before the measurement act as control. The following table indicates the extent of activation of sucrose transport with various concentrations of glucose, stachyose and adenine compared with the control.

[2] = molecular target: T1, amino-acid transporter AAP2 (Arabidopsis thaliana, UniProt Q38967); test: Uptake of radiolabeled L-proline by yeast mutant 22457d-AAP2 expressing the plant amino-acid transporter; assay type: cell-based; conditions: read-out: Activity relative to control [%]
T1 construct: expressed in transfected cells; host or cells: Saccharomyces cerevisiae mutant 22574d (also printed 22457d)
T1 sequence (Q38967 1-493): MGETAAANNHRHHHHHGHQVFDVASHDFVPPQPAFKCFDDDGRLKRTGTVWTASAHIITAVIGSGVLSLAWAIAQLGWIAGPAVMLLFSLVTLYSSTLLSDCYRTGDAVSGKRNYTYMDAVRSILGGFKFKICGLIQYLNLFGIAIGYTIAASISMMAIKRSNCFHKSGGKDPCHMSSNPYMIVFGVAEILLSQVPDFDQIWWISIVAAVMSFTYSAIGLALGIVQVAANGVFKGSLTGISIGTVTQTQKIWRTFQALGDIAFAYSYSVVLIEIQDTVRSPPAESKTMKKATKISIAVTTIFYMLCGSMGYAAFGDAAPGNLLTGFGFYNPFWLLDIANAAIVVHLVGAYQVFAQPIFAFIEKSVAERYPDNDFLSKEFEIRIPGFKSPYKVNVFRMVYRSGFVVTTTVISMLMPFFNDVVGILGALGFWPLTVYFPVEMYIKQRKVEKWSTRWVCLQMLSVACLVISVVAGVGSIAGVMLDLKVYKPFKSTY
Description: Transporter investigations are carried out on the yeast mutant 22574d (Jauniaux & Grenson, Eur. J. Biochem. 190: 39-44, 1990), which harbors a mutation in the gene for amino-acid permease, and on the yeast mutant JT 16 (Tanaka and Fink, Gene 38: 205-214, 1985) which is incapable of histidine uptake, for identification of inhibitors of plant amino-acid transporters. These mutants are transformed with cDNA sequences which code for plant amino-acid transporters and lead to expression of functional transporters in the yeast cells. The cDNA sequences are cDNA sequences which code for the amino-acid transporters AAP1 and AAP2 from Arabidopsis thaliana (Frommer et al., 1993, Proc. Natl. Acad. Sci. USA 90: 5944-5948; Kwart et al., 1993, Plant J. 4:993-1002). For the measurements, cells of these mutants are cultured in minimal medium (NAAG+5 mmol/l proline) at 28° C. and harvested in the logarithmic phase (OD600 =0.6). The cells are spun down in a centrifuge at 4000 rpm and 4 degrees Celsius for 10 minutes and washed 2× with AUB buffer (modified AAB buffer, Ljungdahl et al.). The cell concentration is adjusted to an OD600 of 25 in AUB buffer.
100 μl portions of the cell suspension are mixed with 100 μl of a 1 mmol/l L-proline solution (18.5 kBq of L-[14C]-proline) and various concentrations of the appropriate substance to be investigated. After 20, 60, 120 and 180 seconds, a 50 μl aliquot is removed, diluted in 4 ml -of ice-cold AUB buffer and filtered through glass fever [sic] filter. In order to remove nonspecifically bound L-[14C]-proline, the cells are washed 2× with 4 ml of ice-cold water each time. The radioactivity retained on the glass filter is then measured in a liquid scintillation counter. The radioactivity reflects the amount of radiolabeled proline taken up by the cells. Uptake of radiolabeled proline without addition of a potential inhibitor is determined as one control. Cells of each of the mutants 22574d and JY 16 which have not been transformed with cDNA sequences coding for plant amino-acid transporters are used as further control. Results of measurements of this type on the mutants 22457d-AAP2 which expresses the amino-acid transporter AAP2 from Arabisopsis [sic] thaliana are shown in the following table.
For the investigations, yeast cells of the strain 22457d were transformed with a cDNA sequence which codes for the amino-acid transporter AAP2, and the uptake of radiolabeled proline in the presence of various substances was determined. The various substances tested, their concentration, and the activity of the transporter, shown as percentage activity of the control with which no potential inhibitors were added, are indicated.

[3] = molecular target: T2, sucrose transporter P62 (StSUT1) (Solanum tuberosum, UniProt Q43653); test: [14C]-sucrose uptake by yeast strain SUSY-7-P62 (StSUT1) expressing the potato sucrose transporter; assay type: cell-based; conditions: [14C]-sucrose uptake, pH 3.8
T2 construct: whole-cell [14C]-sucrose uptake; no tag or borders given
T2 sequence (Q43653 1-516): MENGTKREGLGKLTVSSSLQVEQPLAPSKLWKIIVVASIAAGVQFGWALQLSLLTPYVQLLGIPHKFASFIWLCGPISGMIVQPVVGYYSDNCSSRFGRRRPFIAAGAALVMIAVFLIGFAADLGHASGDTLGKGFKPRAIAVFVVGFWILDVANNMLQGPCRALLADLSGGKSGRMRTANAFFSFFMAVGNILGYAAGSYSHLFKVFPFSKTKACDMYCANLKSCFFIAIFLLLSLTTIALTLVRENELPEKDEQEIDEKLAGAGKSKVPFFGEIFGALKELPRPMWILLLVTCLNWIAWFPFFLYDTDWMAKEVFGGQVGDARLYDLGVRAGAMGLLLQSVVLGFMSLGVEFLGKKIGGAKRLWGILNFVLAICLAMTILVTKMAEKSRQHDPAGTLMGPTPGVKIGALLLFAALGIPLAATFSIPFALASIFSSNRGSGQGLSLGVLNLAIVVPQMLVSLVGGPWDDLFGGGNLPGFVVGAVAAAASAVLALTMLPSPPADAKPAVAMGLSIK
Text: Yeast cells of the strain SUSY7 (Riesmeier et al., 1992, EMBO J. 11: 4705-4713) are used to identify substances which have an inhibitory effect on sucrose transporters from potato. Cells of this strain are transformed with a cDNA sequence which codes for the sucrose transporter P62 (StSUT1) from potato (WO 94/00574, Riesmeier et al., 1993, Plant Cell 5:1591-1598) and which ensures expression of a functional transporter in the cells. The resulting yeast strain was called SUSY-7-P62 (StSUT1). The yeast cells are cultured in minimal medium (SD +2% (w/v) sucrose, pH 3.8) at 28° C. and harvested in the logarithmic phase (OD600 =0.6). The cells are spun down at 4000 rpm for 10 minutes and washed twice with SD medium. A cell concentration of c=50 g/l in SD medium is adjusted according to the wet weight of the cells, and 200 Al aliquot fractions are taken. Before the actual reaction, the cells are incubated in 10 mM glucose for 5 min and adjusted to pH 3.8 with MES buffer. The reaction is started by adding 200 Al of a 0.2 mmol/l [14C]-sucrose solution (3 mCi/mmol) in SD medium (pH 3.8). After 20, 60, 120, 180 and 240 seconds, 70 μl portions of the suspension are removed and pipetted into 4 ml of ice-cold water in order to stop the reaction. The cells are filtered off on glass fiber filters and washed twice with ice-cold water. The radioactivity on the filters is subsequently determined in a liquid scintillation counter. The substances to be tested are added 30 seconds before addition of the sucrose. The uptake of radiolabeled sucrose without addition of a potential inhibitor is determined as one control. Cells of the strain SUSY7 which are not transformed with cDNA sequences coding for a sucrose transporter from potato are employed as further control.
The various tested substances, their concentration and the activity of the transporter, shown as percentage activity of the control in which no potential inhibitors were added, are indicated.

[4] = molecular target: T3, sucrose transporter S21 (SoSUT1) (Spinacia oleracea, UniProt Q03411); test: [14C]-sucrose uptake by yeast strain SUSY7 expressing the spinach sucrose transporter; assay type: cell-based; conditions: [14C]-sucrose uptake, pH 3.8, tested substance 2 mM; for remaining activity at 2000 µM: read-out: Activity relative to the control [%]
T3 construct: expressed in transfected cells; host or cells: Saccharomyces cerevisiae SUSY7
T3 sequence (Q03411 1-525): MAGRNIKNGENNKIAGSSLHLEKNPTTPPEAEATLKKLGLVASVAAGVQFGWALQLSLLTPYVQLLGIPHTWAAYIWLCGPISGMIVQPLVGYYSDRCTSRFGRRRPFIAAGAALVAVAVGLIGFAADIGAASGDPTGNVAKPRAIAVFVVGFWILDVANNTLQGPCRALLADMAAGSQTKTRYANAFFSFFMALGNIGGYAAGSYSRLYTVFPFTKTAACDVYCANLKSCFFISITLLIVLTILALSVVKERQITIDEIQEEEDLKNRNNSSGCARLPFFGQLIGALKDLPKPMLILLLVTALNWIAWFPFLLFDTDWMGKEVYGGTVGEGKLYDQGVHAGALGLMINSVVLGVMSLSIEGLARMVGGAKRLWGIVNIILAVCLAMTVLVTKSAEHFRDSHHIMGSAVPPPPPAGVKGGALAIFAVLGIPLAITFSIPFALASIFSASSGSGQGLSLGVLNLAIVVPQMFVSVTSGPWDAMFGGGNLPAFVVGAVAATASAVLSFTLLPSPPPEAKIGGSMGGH
Description: Yeast cells of the strain SUSY7 (Riesmeier et al., 1992, EMBO J. 11: 4705-4713) are used to identify substances which have an inhibitory effect on sucrose transporters from spinach. Cells of this strain are transformed with a cDNA sequence which codes for the sucrose transporter S21 (SoSUT1) from spinach and which ensures expression of a functional transporter in the cells. The yeast cells are cultured in minimal medium (SD+2% (w/v) sucrose, pH 3.8) at 28° C. and harvested in the logarithmic phase (OD600 =0.6). The cells are spun down at 4000 rpm for 10 minutes and washed twice with SD medium. A cell concentration of c=50 g/l in SD medium is adjusted according to the wet weight of the cells, and 200 μl aliquot fractions are taken. Before the actual reaction, the cells are incubated in 10 mM glucose for 5 min and adjusted to pH 3.8 with MES buffer. The reaction is started by adding 200 μl of a 0.2 mmol/l [14C]-sucrose solution (3 mCi/mmol) in SD medium (pH 3.8). After 20, 60, 120, 180 and 240 seconds, 70 μl portions of the suspension are removed and pipetted into 4 ml of ice-cold water in order to stop the reaction. The cells are filtered off on glass fiber filters and washed twice with ice-cold water. The radioactivity on the filters is subsequently determined in a liquid scintillation counter. The substances to be tested are added 30 seconds before addition of the sucrose. The uptake of radiolabeled sucrose without addition of a potential inhibitor is determined as one control. Cells of the strain SUSY7 which are not transformed with cDNA sequences coding for a sucrose transporter from spinach are employed as further control.
The various tested substances, their concentration and the activity of the transporter, shown as percentage activity of the control in which no potential inhibitors were added, are indicated. Substances which specifically show an inhibitory effect on the sucrose transporter S21 (SoSUT1), are tested for their herbicidal and growth-regulating effect on whole plants.

[5] = sucrose transport after 5 min preincubation with the substance at c1 [0.2 mol/l], 200000 µM
[6] = sucrose transport after 5 min preincubation with the substance at c2 [2 mmol/l]
[7] = tested substance 2 mM, read-out: Activity relative to the control [%]

SMILES: Nc1ncnc2nc[nH]c12 [Adenine]
Effect on sucrose transport as a function of concentration [1]: linear relation between the adenine concentration and the increase in the sucrose transport rate
Activity relative to the control [%] [1, 5]: 141 ± 5%
Activity relative to the control [%] [1, 6]: 225 ± 6%

SMILES: O=C(O)C1CCN1 (stereo not drawn) [Azetidine-2-carboxylate]
remaining activity at 10000 µM ([2]; L-[14C]-proline uptake, tested substance 10 mM): 62%

SMILES: O=C(O)[C@H]1CCCN1 [D-Proline]
remaining activity at 10000 µM [2]: 90%

SMILES: OC[C@H]1OC(O)[C@H](O)[C@@H](O)[C@@H]1O (stereo partly drawn) [Glucose]
Activity relative to the control [%] [1, 5]: 89 ± 5%
Activity relative to the control [%] [1, 6]: 90 ± 3%

SMILES: CCN1C(=O)C=CC1=O [N-Ethylmaleimide]
remaining activity at 1000 µM ([3]; tested substance 1 mM, read-out: Activity relative to the control [%]): 22%

remaining activity at 2000 µM [3, 7]: 102%
remaining activity at 2000 µM [4]: 85%
SMILES: O=C(CO)[C@@H](O)[C@H](O)[C@H](O)CO[C@H]1O[C@H](CO)[C@@H](O)[C@H](O)[C@H]1O [Palatinose]

remaining activity at 2000 µM [3, 7]: 110%
remaining activity at 2000 µM [4]: 110%
SMILES: OC[C@H]1O[C@H](OC[C@H]2O[C@H](O[C@]3(CO)O[C@H](CO)[C@@H](O)[C@@H]3O)[C@H](O)[C@@H](O)[C@@H]2O)[C@H](O)[C@@H](O)[C@H]1O [Raffinose]

SMILES: OC[C@H]1O[C@H](OC[C@H]2O[C@H](OC[C@H]3O[C@H](O[C@]4(CO)O[C@H](CO)[C@@H](O)[C@@H]4O)[C@H](O)[C@@H](O)[C@@H]3O)[C@H](O)[C@@H](O)[C@H]2O)[C@H](O)[C@@H](O)[C@H]1O [Stachyose]
Effect on sucrose transport as a function of concentration [1]: stimulates sucrose transport at low concentrations, while this effect is reversed at high concentrations (c>0.4 mmol/l)
Activity relative to the control [%] [1, 5]: 144 ± 9%
Activity relative to the control [%] [1, 6]: 101 ± 8%

remaining activity at 2000 µM [3, 7]: 103%
remaining activity at 2000 µM [4]: 105%
SMILES: O=C(CO)[C@@H](O)[C@@H](O)[C@H](O)CO [Tagatose]

Activity relative to the control [%] ([3]; tested substance 2 mM): 7%
Activity relative to the control [%] [4]: 8.0%
SMILES: OC[C@H]1O[C@H](Oc2ccccc2)[C@H](O)[C@@H](O)[C@@H]1O [α-Phenylglucose]

SMILES: OC[C@H]1O[C@@H](O[C@H]2[C@H](O)[C@@H](O)[C@H](O)O[C@@H]2CO)[C@H](O)[C@@H](O)[C@H]1O [β-Lactose]
remaining activity at 2000 µM [3, 7]: 91%
remaining activity at 2000 µM [4]: 94.9%
